According to publication PMC10319115, “CL-705G: a novel chemical Kir6.2-specific KATP channel opener” (Frontiers in Pharmacology, 2023):

Legend:
Kir3.1/Kir3.4 = target: T1, Kir3.1/Kir3.4 (Mus musculus, UniProt P48548+P63250); experiment: two-electrode voltage clamp, Xenopus oocytes; type: cell-based; conditions: inhibition; high K+ (96 mM) pH 7.3
T1 construct: gene Kcnj3; heterotetramer expressed from cRNA in Xenopus laevis oocytes
T1 sequence (P63250 1-501): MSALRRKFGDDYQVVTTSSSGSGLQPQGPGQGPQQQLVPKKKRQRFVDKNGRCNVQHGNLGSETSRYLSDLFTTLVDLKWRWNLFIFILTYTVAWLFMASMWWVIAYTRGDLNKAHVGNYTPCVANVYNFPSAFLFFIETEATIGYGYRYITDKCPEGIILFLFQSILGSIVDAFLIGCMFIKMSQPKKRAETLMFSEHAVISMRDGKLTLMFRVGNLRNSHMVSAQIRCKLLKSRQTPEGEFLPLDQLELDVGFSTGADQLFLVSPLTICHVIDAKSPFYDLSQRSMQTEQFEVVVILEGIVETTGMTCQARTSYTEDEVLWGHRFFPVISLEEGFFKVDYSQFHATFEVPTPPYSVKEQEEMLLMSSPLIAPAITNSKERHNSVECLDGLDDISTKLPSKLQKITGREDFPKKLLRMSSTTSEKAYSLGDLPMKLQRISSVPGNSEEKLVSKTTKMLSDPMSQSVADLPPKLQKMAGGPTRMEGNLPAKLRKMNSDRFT
T1 sequence (P48548 1-419): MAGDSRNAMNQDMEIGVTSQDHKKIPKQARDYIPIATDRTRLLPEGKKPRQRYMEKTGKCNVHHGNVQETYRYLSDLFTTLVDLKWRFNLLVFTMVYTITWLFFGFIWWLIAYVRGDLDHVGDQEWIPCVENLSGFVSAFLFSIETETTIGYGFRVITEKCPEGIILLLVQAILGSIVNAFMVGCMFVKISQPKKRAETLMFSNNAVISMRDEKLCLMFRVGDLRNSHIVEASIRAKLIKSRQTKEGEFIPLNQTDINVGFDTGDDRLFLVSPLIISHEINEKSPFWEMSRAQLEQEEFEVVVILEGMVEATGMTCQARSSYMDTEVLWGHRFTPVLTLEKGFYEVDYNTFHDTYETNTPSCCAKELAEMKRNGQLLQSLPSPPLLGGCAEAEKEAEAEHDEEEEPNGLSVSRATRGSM

Kir6.2/SUR2A = tested on: T2, Kir6.2/SUR2A; experiment: Tl+ flux (FluxOR II), initial rate, HEK-293; type: cell-based; conditions: opener; 10 min preincubation
T2 construct: gene KCNJ11; hetero-octamer

| SMILES | % reduction of current at 100 μM (Kir3.1/Kir3.4) | EC50 (Kir6.2/SUR2A) |
| --- | --- | --- |
| O=C(c1cc(=O)[nH][nH]1)N1CCCC(CCc2ccccc2C(F)(F)F)C1 (centres unmarked) [CL-705G, 5-[(3-{2-[2-(trifluoromethyl)phenyl]ethyl}-1-piperidinyl)carbonyl]-1,2-dihydro-3H-pyrazol-3-one] | 17% |  |
| CC(NC(=NC#N)Nc1ccncc1)C(C)(C)C (centres unmarked) [pinacidil] |  | 11 µM |
